Like-named read-outs stand apart in the source and are kept apart here.
Columns and labels:
[1] = test system: TNF production by human monocytes; assay: In vitro TNF production by LPS-stimulated human monocytes (ELISA); assay type: cell-based; conditions: Table B, LPS 50 ng/ml, 24 h, read-out: IC50, LPS induced TNF human monocyte data
Protocol: The effects of the compounds enumerated above on the in vitro production of TNF by human monocytes was examined using the following protocol.
Bacterial lipopolysaccharide (LPS) was used to induce TNF production by human peripheral blood monocytes. TNF activity was measured by a modification of Winston et al., ELISA, described below. […] The cells were allowed to adhere for 2 hours, after which time non-adherent cells were removed by gentle washing. […] At the end of the incubation period, culture supernatants were removed and clarified of cells and all debris. Culture supernatants were immediately assayed for TNF levels in the manner described below.
The Elisa employes a murine monoclonal anti-human TNF antibody, described below, as the capture antibody and a polyclonal rabbit anti-human TNF, described below, as the second antibody. […] TNF levels in samples were calculated from a standard curve genereated with recombinant human TNF produced in E. Coli (obtained from SmithKIine Beecham Pharmaceuticals, King of Prussia, Pa., USA).
Polyclonal rabbit anti-human TNF antibodies were prepared by repeated immunization of New Zeland White (NZW) rabbits with recombinant human TNF emulsified in complete Freund's adjuvant (DEFCO, Ill., USA).

[2] = test system: cyclooxygenase; conditions: literature (Lee et al.); cited from earlier work
[3] = test system: 5-lipoxygenase; conditions: literature (Lee et al.); cited from earlier work
[4] = test system: IL-1 production by human monocytes; conditions: literature (Lee et al.); in words; cited from earlier work
[5] = test system: arachidonic acid-induced inflammation; conditions: literature (Griswold et al.); cited from earlier work
[6] = test system: IL-1 production by human monocytes; assay: In vitro IL-1 production by LPS-stimulated human monocytes; assay type: cell-based; conditions: Homo sapiens, Monocyte
Protocol: Bacterial lipopolysaccharide (LPS) was used to induce IL-1 production by human peripheral blood monocytes. IL-1 activity was measured by its ability to stimulate a Interleukin 2 (IL-2) producing cell line […] to secrete IL-2, in concert with A23187 ionophore, according to the method of Simon et al., J. Immunol. […] The cells were allowed to adhere for 2 hours, after which time non-adherent cells were removed by gentle washing. […] At the end of the incubation period, culture supernatants were removed and clarified of cells and all debris.

[7] = test system: arachidonic acid-induced mouse ear swelling; assay: Arachidonic acid-induced mouse ear swelling (p.o.); assay type: in vivo; conditions: 50 mg/kg p.o.; *** p less than 0.001
Protocol: ^a Mouse ear edema was measured as described in Griswold et al.,
Inflammation, II(2), 189-199 (1987), the disclosure of which is hereby
incorporated by reference.

[8] = test system: endotoxin shock in D-gal-sensitized mice; assay: LPS-GAL endotoxin shock model (D-gal-sensitized mice); assay type: in vivo, mouse (C57BL/6)
From the text: (§1) Two models of endotoxin shock have been utilized to determine in vivo TNF activity and are described below. The actual protocol used in the models is described in Utility Model Examples A and B set out below, i.e. P. acnes model and LPS-GAL model.
Endotoxin Shock in D-gal-Sensitized Mice
The protocol used to test the compound of the method of the subject invention was essentially as has been described in Galanos et al., Proc. Nat'l Acad. Sci USA, 76:5939-43 (1979) whose disclosure is herein incorporated by reference. Briefly, D-gal […] sensitizes various strains of mice to the lethal effects of endotoxin. The administration of D-gal (300-500 mg/kg) intravenously (i.v.) sensitizes the mice to doses of Lipopolysaccharide(LPS ) as low as 0.1 mg. […]
Plasma levels of TNF were measured using a modification of the basic sandwich ELISA method described in Winston et al., Current Protocols in Molecular Biology, Pg. […] TNF levels in rat samples were calculated from a standard curve generated with recombinant murine TNF (Genzyme, Boston, Mass., USA). TNF levels determined by ELISA correlated with levels detected by the L929 bioassay of Ruff et. al., J. Immunol. […] The ELISA detected levels of TNF down to 25 pg/ml.

[9] = test system: endotoxin shock in mice; assay: In vivo endotoxin shock models (P. acnes and/or LPS-GAL); parameters: species or system mouse (C57BL/6); conditions: one or both in vivo models
From the text: as §1
The protocol used to test the compound of the method of the subject invention was essentially as has been described in Galanos et al., Proc. Nat'l Acad. Sci USA, 76:5939-43 (1979) whose disclosure is herein incorporated by reference. Briefly, D-gal […] sensitizes various strains of mice to the lethal effects of endotoxin. The administration of D-gal (300-500 mg/kg) intravenously (i.v.) sensitizes the mice to doses of Lipopolysaccharide(LPS ) as low as 0.1 mg. Briefly, male C57BL/6 mice, obtained from Charles River Laboratories (Stone Ridge, N.Y., USA) of 6-12 weeks of age were injected i.v. with 0.1 mg of LPS from Salmonella typhosa (Difco Laboratories, Detroit, Mich., USA) admixed with D(+)-gal (Sigma; 500 mg/kg) in 0.20-0.25 ml pyrogen-free saline. Compounds to be tested were administered at various times prior to or following the i.v. injection of LPS/D-gal. In this model, the control animals usually die 5-6 hr. following the injection of LPS, although on occasion deaths are seen between 24 and 48 hr.
(§2) This model is a modification of the previously described protocol for the in vivo induction of TNF as described in Haranaka et al., Cancer Immunol Immunother. 18:81-90, (1984). Treatment with Proprionibacterium Acnes (P. acnes) (1 mg/animal i.p.) renders mice susceptible to the lethal effects of LPS injected 10 days later.
(§3) P. acnes was purchased from Burroughs Wellcome (Triangle Park, N.C., USA), and […] of the heat-killed bacteria was administered in 0.5 ml pyrogen-free saline by intraperitoneal (i.p.) injection to male C57BL/6 mice, obtained from Charles River Laboratories (Stone Ridge, N.Y., USA) of 6-12 weeks of age. Ten days later, the mice were injected i.v. with 1 mg LPS in 0.25 ml saline. Compounds to be tested were administered at various times prior to or following the injection of LPS. The survival of animals was monitored for 1 week.
Plasma levels of TNF were measured using a modification of the basic sandwich ELISA method described in Winston et al., Current Protocols in Molecular Biology, Pg. 11.2.1, Ausubel et al., Ed. (1987) John Wiley and Sons, New York, USA. The Elisa employed a hampster monoclonal anti-mouse TNF (Genzyme, Boston, Mass., USA ) as the capture antibody and a polyclonal rabbit anti-murine TNF (Genzyme, Boston, Mass., USA ) as the detecting antibody. TNF levels in rat samples were calculated from a standard curve generated with recombinant murine TNF (Genzyme, Boston, Mass., USA). TNF levels determined by ELISA correlated with levels detected by the L929 bioassay of Ruff et. al., J. Immunol. 125:1671-1677 (1980), with 1 Unit of activity in the bioassay corresponding to 70 picograms (pg) of TNF in the ELISA. The ELISA detected levels of TNF down to 25 pg/ml.

[10] = test system: serum TNF in P. acnes-sensitized mice; assay: P. acnes/LPS endotoxin shock model, serum TNF; assay type: in vivo, mouse (C57BL/6); conditions: P. acnes/LPS treated mice, oral dosage, FIG. 1
From the text: as §1
Endotoxin Shock in P. acnes-Sensitized Mice
as §2
as §3, with “Ten days later, the mice were injected i.v. with 1 mg LPS in 0.25 ml saline. Compounds to be tested were administered at various times prior to or following the injection of LPS.” left out
Plasma levels of TNF were measured using a modification of the basic sandwich ELISA method described in Winston et al., Current Protocols in Molecular Biology, Pg. […] TNF levels in rat samples were calculated from a standard curve generated with recombinant murine TNF (Genzyme, Boston, Mass., USA). TNF levels determined by ELISA correlated with levels detected by the L929 bioassay of Ruff et. al., J. Immunol. […]

[11] = Table 1, LPS 50 ng/ml, 24 h, read-out: IC50, effect on LPS-stimulated IL-1 production by human monocytes
[12] = Table 3, read-out: IC50, inhibition of IL-1 production by LPS stimulated monocytes in vitro

Row | Molecule | IC50 [6, 11] | Percent inhibition of arachidonic acid-induced mouse ear swelling [7] | IC50 ([1]; Homo sapiens, Monocyte) | also measured
1 | 2-p-bromophenyl-3-pyridyl-6,7-dihydro-[5H]-pyrrolo-[1,2-a]-imidazole [Compound D] | – | – | – | IC50 [1]: 1000 nM
2 | 2-phenyl-3-pyridyl-6,7-dihydro-[5H]-pyrrolo[1,2-a]imidazole [Compound C] | – | – | – | IC50 [1]: 800 nM
3 | Fc1ccc(-c2nc3n(c2-c2ccncc2)CCS3)cc1 [5-(4-pyridyl)-6(4-fluorophenyl)-2,3-dihydroimidazo(2,1-b)thiazole] | – | – | – | Inhibition of cyclooxygenase-mediated arachidonate metabolism [2]: inhibits; Inhibition of 5-lipoxygenase-mediated arachidonate metabolism [3]: inhibits; Inhibition of IL-1 production by LPS-stimulated human monocytes [4]: potent inhibitor of IL-1 production; Effects on the edematous and cellular component of arachidonic acid-induced inflammation [5]: inhibitory effects
4 | CSc1ccc(-c2nc3n(c2-c2ccncc2)CCC3)cc1 [Compound 1, 2-(4-methylthiophenyl)-3-(4-pyridyl)-6,7-dihydro-[5H]-pyrrolo-[1,2-a-]-imidazole] | 2000 nM | 56% | 1000 nM | –
5 | C[S+]([O-])c1ccc(-c2nc3n(c2-c2ccncc2)CCC3)cc1 (stereo not drawn) [Compound 2, 2-(4-methylsulfinylphenyl)-3-(4-pyridyl)-6,7-dihydro-[5H]-pyrrolo-[1,2-a]-imidazole] | > 10000 nM | 44% | > 10000 nM | Reduction of serum TNF levels ([8]; 100 mg/kg, FIG. 3): reduction of serum TNF levels; Survival rate of animals with endotoxic shock ([8]; FIG. 4, control group 30%): 100%; Inhibition of in vivo TNF levels / in vivo activity [9]: in vivo activity; Protection from lethal effects of endotoxin shock [9]: protection from the lethal effects of endotoxin shock; Reduction in serum / in vivo TNF levels [10]: decreased levels of in vivo TNF relative to increased oral dosage
6 | CCSc1ccc(-c2nc3n(c2-c2ccncc2)CCC3)cc1 [Compound 3] | 2000 nM | 56% | – | –
7 | CC[S+]([O-])c1ccc(-c2nc3n(c2-c2ccncc2)CCC3)cc1 (stereo not drawn) [Compound 4] | > 10000 nM | 41% | 7000 nM | Inhibition of in vivo TNF levels / in vivo activity [9]: inhibited in vivo TNF levels; Protection from lethal effects of endotoxin shock [9]: protected the animals from endotoxic induced shock
8 | CSc1ccc(-c2nc3n(c2-c2ccnc(C)c2)CCC3)cc1 [Compound 5, 2-(4-methylthiophenyl)-3-(4-(2-methyl)pyridyl)-6,7-dihydro-[5H]-pyrrolo-[1,2-a-]-imidazole] | 2700 nM | 59% | 7000 nM | Inhibition of in vivo TNF levels / in vivo activity [9]: inhibited in vivo TNF levels; Protection from lethal effects of endotoxin shock [9]: protected the animals from endotoxic induced shock
9 | Cc1cc(-c2c(-c3ccc([S+](C)[O-])cc3)nc3n2CCC3)ccn1 (stereo not drawn) [Compound 6, 2-(4-methylsulfinylphenyl)-3-(4-(2-methyl)-pyridyl)-6,7-dihydro-[5H]-pyrrolo-[1,2-a]-imidazole] | > 10000 nM | 59% | – | –
10 | CC(=O)OCSc1ccc(-c2nc3n(c2-c2ccncc2)CCC3)cc1 [Compound 10, 2-(4-acetoxymethylthiophenyl)-3-(4-pyridyl)-6,7-dihydro-[5H]-pyrrolo-[1,2-a]-imidazole] | 6300 nM | – | 3000 nM | –
11 | COc1ccc(-c2nc3n(c2-c2ccncc2)CCC3)cc1 [Compound 24, 2-(4-Methoxyphenyl)-3-(4-pyridyl)-6,7-dihydro-[5H]-pyrrolo-[1,2-a]-imidazole] | – | – | 500 nM | IC50 [6, 12]: 100 nM
12 | Brc1ccc(-c2nc3n(c2-c2ccncc2)CCC3)cc1 [Compound 27, 2-(4-Bromophenyl)-3-(4-pyridyl)-6,7-dihydro-[5H]-pyrrolo-[1,2-a]-imidazole] | – | – | – | IC50 [6, 12]: 700 nM
13 | COc1ccc(-c2nc3n(c2-c2ccncc2)CCC3=O)cc1 [Compound E, 2-(4-Methoxyphenyl)-3-(4-pyridyl)-7-oxo-5,6-dihydro-7-H-pyrrolo-[1,2-a]imidazole] | – | – | 1000 nM | –
14 | COc1ccc(-c2nc3n(c2-c2ccncc2)CCC3O)cc1 (stereo not drawn) [Compound F, 5,6-dihydro-2-(4-methoxyphenyl)-3-(4-pyridinyl)-[7H]-pyrrolo[1,2-a]-imidazole-7-ol] | – | – | 1000 nM | –
15 | [O-][S+]1CCn2c1nc(-c1ccc(F)cc1)c2-c1ccncc1 (stereo not drawn) [Compound I, 6-(4-Fluorophenyl)-5-(4'-pyridyl)-2,3-dihydroimidazo[2,1-b]thiazole-1-oxide] | – | – | 200 nM | –
16 | O=S1(=O)CCn2c1nc(-c1ccc(F)cc1)c2-c1ccncc1 [Compound J, 6-(4-Fluorophenyl)-5-(4-pyridyl)-2,3-dihydroimidazo[2,1-b]thiazole-1,1-dioxide] | – | – | 9000 nM | Inhibition of in vivo TNF levels / in vivo activity [9]: inhibited in vivo TNF levels; Protection from lethal effects of endotoxin shock [9]: protected the animals from endotoxic induced shock
17 | Fc1ccc(-c2nc3n(c2-c2ccncc2)CCC3)cc1 [Compound M, 2-(4-Fluorophenyl)-3-(4-pyridyl)-6,7-dihydro-[5H]-pyrrolo-[1,2-a]-imidazole] | – | – | 200 nM | –
18 | Fc1ccc(-c2c(-c3ccncc3)nc3n2CCC3)cc1 [Compound N, 3-(4-Fluorophenyl)-2-(4-pyridyl)-6,7-dihydro-[5H]-pyrrolo-[1,2-a]-imidazole] | – | – | 1000 nM | –
19 | CC(Cc1ccc(O)c(O)c1)C(C)Cc1ccc(O)c(O)c1 (stereo not drawn) [nordihydroguaiaretic acid] | – | – | – | Inhibition of IL-1 production by LPS-stimulated human monocytes [4]: with the exception of nordihydroguaiaretic acid, were inactive

Reference: patent US5317019A, “Inhibition of interleukin-1 and tumor necrosis factor production by monocytes and/or macrophages” (priority 1991, dated 1994)
